Experimental findings from PMC9465256, “Discovering monoacylglycerol lipase inhibitors by a combination of fluorogenic substrate assay and activity-based protein profiling” (Frontiers in Pharmacology, 2022) are described below.

Read-outs that look alike come from different tables or passages of the source. Where only a bound is given, the exact number is not on record here.

One assay addresses T1, human MAGL (Homo sapiens, UniProt Q99685).
T1 construct: expressed in transfected cells; host or cells: HEK293T (transient transfection; membrane fraction)
T1 sequence (Q99685 1-303): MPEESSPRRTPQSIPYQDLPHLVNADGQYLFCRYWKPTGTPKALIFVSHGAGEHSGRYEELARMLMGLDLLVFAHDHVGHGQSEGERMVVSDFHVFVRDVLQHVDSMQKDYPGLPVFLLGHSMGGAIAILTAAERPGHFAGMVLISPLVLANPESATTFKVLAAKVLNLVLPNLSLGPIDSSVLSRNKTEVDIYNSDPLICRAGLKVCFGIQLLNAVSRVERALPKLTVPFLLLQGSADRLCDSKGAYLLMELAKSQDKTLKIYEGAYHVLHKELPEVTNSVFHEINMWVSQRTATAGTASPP
The assay is described as follows: MAGL activity assay (AA-HNA fluorogenic substrate). Type of assay: biochemical. Summed up:
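Membranes from transiently transfected HEK293T cells overexpressing MAGL were preincubated with inhibitor for 30 min in 40 mM HEPES pH 7.5 with 0.1 mg/ml BSA. AA-HNA substrate was then added (10 µl of 200 µM stock), and fluorescence was read every minute for 30 min. Activity was taken from the slope between 5 and 15 min.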

A further assay concerns A431 cells. Nature of the assay: Cell viability assay (CCK-8), A431. As to conditions: for IC50: Homo sapiens, A-431, read-out: Antiproliferation activity (pIC50 ± SEM) A431 (converted). It is filed as cell-based. As to the method:
(§1) Various cancer cell lines, including human colon cancer cell line HT-29, ovarian cell line OVCAR-3, melanoma cell line B16-F10, skin squamous cancer cells A431, cervical cancer cells Hela, lung cancer cell lines A549, H1975, and HCC827, were purchased from American type culture collection (ATCC). A431, H1975, B16-F10, OVCAR-3, HT-29, HCC827, Hela, and A549 cells were cultured in Dulbecco’s modified Eagle medium (DMEM, Gibco) containing 10% fetal bovine serum (FBS, Gibco), penicillin (100 U/ml) and streptomycin (100 μg/ml). All cell lines were maintained in a humidified 37°C incubator with 5% CO2. The medium was refreshed every 2–3 days and the cells were passaged at ∼90% confluence by adding the fresh medium, followed by vigorously pipetting the resuspend cells. Of note, the cells were only washed with PBS when a significant number of dead cells were observed.
(§2) The antiproliferation activity of the compounds against the cancer cell lines was evaluated using Cell Counting Kit-8. Briefly, cells (∼1,000 per well) in 100 µl of culture medium were plated in a 96-well plate for 24 h and 100 µl of medium with different concentrations of the tested compounds was added to each well for 48 h. Then 10 μl of CCK8 solution (#CK04, Dojindo) was added and incubated at 37°C for 2 h. The absorbance of each well was measured with a plate reader (BioTeck) at 450 nm. Cell viability was calculated as follows: cell viability (%) = [(As-Ab)/(Ac-Ab)] × 100. Among them, As represents the absorbance of experimental wells, Ab represents the absorbance of blank wells and Ac represents the absorbance of control wells. The experiments were repeated at least three times and IC50 values were determined by plotting a log(inhibitor) v. s normalized response (Variable slope) dose–response curve generated using GraphPad Prism software.

A further assay relates to B16-F10 cells. Nature of the assay: Cell viability assay (CCK-8), B16-F10. Type of assay: cell-based. As to conditions: for IC50: Mus musculus, read-out: Antiproliferation activity (pIC50 ± SEM) B16-F10 (converted). How it is done:
as §1, §2

Another assay deals with Hela cells. Nature of the assay: Cell viability assay (CCK-8), Hela. Type of assay: cell-based. Conditions: 48 h; for IC50: Homo sapiens, read-out: Antiproliferation activity (pIC50 ± SEM) Hela (converted). How it is done: as §1, §2
Assay [1] relates to panel of cancer cell lines (A431, H1975, B16-F10, OVCAR-3, HT-29, HCC827, Hela, A549). Nature of the assay: Cell viability assay (CCK-8), panel of eight cancer cell lines. It is filed as cell-based. Conditions: 48 h; for antiproliferative screening across the cell line panel: 20 µM. How it is done: as §1, §2
Assay [2] relates to endogenous MAGL in cancer cells. The assay is described as follows: Competitive ABPP in cancer cell lysates: MAGL band. Type of assay: biochemical. As to conditions: 100 µM, FP-TAMRA 500 nM. As to the method:
To identify the potential off-targets of the compounds with anti-cancer activities, ABPP was applied. Cancer cells were seeded in the dishes and were washed with PBS, scraped, centrifugated (3,000 × g, 3 min) and pellets snap frozen in liquid in nitrogen. For ABPP experiments, the cell pellets were lysed by probe sonication (3 × 10 bursts) in PBS, followed by the determination of protein concentration of the intact cell lysate by Qubit assay. […] The reactions were then quenched by 10 µl sample buffer (×4). The obtained samples were directly loaded and resolved on SDS-PAGE gel (10% acrylamide). The gel-based ABPP results were then scanned and analyzed using a ChemiDoc MP system (Cy3 settings, BioRad).

[3] abbreviates: 100 µM, AA-HNA substrate assay, Supplementary Table 1, read-out: MAGL Inhibition (%).

In the case of `Cl.N=c1ccn2c(n1)O[C@H]1[C@H](O)[C@@H](CO)O[C@H]12` [compound 1, Cyclocytidine HCl], at human MAGL (setting [3]), the activity was 31.7%. Moreover, in the assay on A431 cells (A431, 48 h, CCK-8), the “Antiproliferation activity (pIC50 ± SEM) A431” value is reported as <5. The “Antiproliferation activity (pIC50 ± SEM) B16-F10” value in the assay with B16-F10 cells (B16-F10, 48 h, CCK-8) was determined as 5.7 ± 0.2. The “Antiproliferation activity (pIC50 ± SEM) Hela” value in the assay on Hela cells worked out at 5.0 ± 0.2. Further, in assay [1], the “antiproliferative screening across the cell line panel” value is recorded as “appreciable inhibition against almost all the tested cell lines”.

Regarding `O=c1cc(-c2ccc(O)cc2)oc2cc(O)cc(O)c12` [compound 9, Apigenin], on human MAGL (100 µM, AA-HNA assay), the inhibition at 100 µM is > 80%. For the same compound, the IC50 in the assay with A431 cells (A431, 48 h, CCK-8) was > 10 µM; with B16-F10 cells (B16-F10, 48 h, CCK-8), > 10 µM; in the assay on Hela cells it was > 10 µM. In addition, in the assay with B16-F10 cells (20 µM, 48 h), the “inhibition of cell viability of B16-F10” value stood at 54%. Besides, the “antiproliferative screening across the cell line panel” value in assay [1] was “neglectable antiproliferative behavior to other cell lines”.

With `COc1ccc2cc3[n+](cc2c1OC)CCc1cc2c(cc1-3)OCO2` [compound 17, Berberine chloride], the activity at 100 µM at human MAGL (setting [3]) was 82.8%. Also, the IC50 in the assay with A431 cells (A431, 48 h, CCK-8) was > 10 µM; in the assay on B16-F10 cells (B16-F10, 48 h, CCK-8), > 10 µM; in the assay with Hela cells, > 10 µM.

As to `C[C@H]1COC2=C1C(=O)C(=O)c1c2ccc2c1CCCC2(C)C` [compound 23, Cryptotanshinone], the inhibition at 100 µM at human MAGL (100 µM, AA-HNA assay) is > 80%. Moreover, the activity at 100 µM on human MAGL (setting [3]) stood at 11.2%. Further, the IC50 at human MAGL (printed in Figure 3B-D, read-out: IC50 (MAGL, AA-HNA assay)) was 11 µM; on human MAGL (recombinant human MAGL, AA-HNA assay, average ± SEM, n = 4, read-out: MAGL inhibition (pIC50) (converted)), 12.6 µM; in the assay on A431 cells (A431, 48 h, CCK-8) it was 7.94 µM; with B16-F10 cells (B16-F10, 48 h, CCK-8), 7.94 µM; with Hela cells, 7.94 µM; in assay [1] (CCK-8, read-out: pIC50 towards all eight cancer cell lines (converted)), ≤ 10 µM. Also, the “antiproliferative screening across the cell line panel” value in assay [1] was “appreciable inhibition against almost all the tested cell lines”. In assay [2] (30 min, A549 cell lysate), the “labeling of endogenous MAGL, A549” value is “completely reduced the labeling”. In assay [2] (30 min, B16-F10 cell lysate), the “labeling of endogenous MAGL, B16-F10” value is given as “completely reduced the labeling”. In addition, the “labeling of endogenous MAGL, H1975” value in assay [2] (30 min, H1975 cell lysate) was “completely reduced the labeling”. The “labeling of endogenous MAGL, HCC827” value in assay [2] (30 min, HCC827 cell lysate) is “completely reduced the labeling”. For the same compound, the “labeling of endogenous MAGL, HT-29” value in assay [2] (30 min, HT-29 cell lysate) was “completely reduced the labeling”. In addition, the “labeling of endogenous MAGL, Hela” value in assay [2] (30 min, Hela cell lysate) is “completely reduced the labeling”. Further, the “labeling of endogenous MAGL, OVCAR-3” value in assay [2] (30 min, OVCAR-3 cell lysate) is listed as “completely reduced the labeling”. In addition, the “inhibition of endogenous MAGL in the tested cancer cell lines” value in assay [2] (cancer cell lysates) was “nearly complete inhibition”.

Consider `COc1ccc(C(C)=O)c(O)c1` [compound 64, Paeonol], for which, on human MAGL (setting [3]), the activity at 100 µM worked out at 102%. For the same compound, in the assay with A431 cells (20 µM, 48 h), the “inhibition of cell viability of A431” value is recorded as 78%. Besides, the IC50 with A431 cells (A431, 48 h, CCK-8) is 6.31 µM; in the assay with B16-F10 cells (B16-F10, 48 h, CCK-8) it was > 10 µM; in the assay on Hela cells, > 10 µM. For the same compound, the “antiproliferative screening across the cell line panel” value in assay [1] is listed as “selectively inhibited cell proliferation of A431 over other cell lines”.

Broadly, the inhibition is the percentage by which the read-out fell short of the control.
